Ends that are not written are not given here.
What was measured:
[1] = system: spleen cells of immunized mice; assay: WT1 peptide-specific cell lines, cell proliferation ability (3H incorporation); format: cell-based, mouse; details: for proliferation reaction with MHC class I antibody or MHC class II antibody added (3H incorporation): 4th stimulation with peptide-pulsed stimulator, antibody added to the culture solution, FIG. 2A-2C; for proliferation reaction in response to stimulator pulsed with the peptide (3H incorporation): spleen cells of mice immunized with the same peptide, 4th stimulation with irradiated peptide-pulsed spleen cells of non-immunized mice, FIG. 1A-1C
Experimental: First, the above WT1 peptides were emulsified with a Freund's incomplete adjuvant (Montanide ISA 51), and mice were intradermally inoculated with each WT1 peptide in an amount corresponding to 100 μg/mouse. The immunization was carried out 3 times at intervals of one week, the spleen was removed after 1 week of the final immunization, and spleen cells were prepared. The spleen cells were stimulated 3 times at intervals of 10 days using spleen cells of non-immunized mice, which were pulsed with the same WT1 peptide as that used for immunization of each mouse and irradiated, as a stimulator. Then, the 4th stimulation was carried out using spleen cells of non-immunized mice, which were pulsed with each peptide (WT13 5, WT18 6 or WT12 9 4 peptide) as shown in Table 7 and irradiated, as a stimulator, and proliferation reaction in response to each stimulator was measured by a ^3H incorporation experiment. An OVA (ovalbumin) peptide irrelevant to WT1 peptides was used as a control peptide. As a result, mouse spleen cells immunized with a WT13 5 peptide, a WT18 6 peptide or a WT12 9 4 peptide each responded to the stimulator pulsed with a WT13 5 peptide, a WT18 6 peptide or a WT12 9 4 peptide, and proliferated (FIG. 1A to 1C).
As described above, spleen cells were stimulated in vitro 3 times at intervals of 10 days using spleen cells of non-immunized mice, which were pulsed with each WT1 peptide and irradiated. When the 4th stimulation was then carried out using spleen cells of non-immunized mice, which were pulsed with each peptide described above and irradiated, as a stimulator, and proliferation reaction was measured, an MHC class I antibody (D^b antibody) or an MHC class II antibody (Ab antibody) was added to the culture solution and ^3H incorporation was measured.

[2] = system: C1498 cells; assay: Proliferation reaction of WT1 peptide-specific cell lines to C1498 stimulator cells (3H incorporation); format: cell-based, mouse; details: irradiated C1498 stimulators; FIG. 3
Experimental: As described above, spleen cells were stimulated in vitro 3 times at intervals of 10 days using spleen cells of non-immunized mice, which were pulsed with each WT1 peptide and irradiated. Then, the proliferation reaction was measured by ^3H incorporation using irradiated C1498 cells not expressing any WT1 protein, C1498 cells pulsed with each of the above WT1 peptides, or C1498 cells expressing a WT1 protein by introduction of a WT1 gene, as a stimulator.

[3] = system: RMAS cells pulsed with a WT1126 peptide (MHC class I); assay: WT1-specific immune response in spleen cells of tumor-implanted mice (cytotoxic activity, WT1 tetramer FACS); format: in vivo, mouse
Experimental: Next, mice were dissected on the 29th day after starting the above experiment, the spleen was excised, and a WT1-specific immune response was analyzed using spleen cells. Briefly, the spleen was excised when mice of the WT13 5 helper peptide (MHC class II)-immunized group and the control group were dissected, and spleen cells were prepared. The spleen cells were stimulated once with a WT11 2 6 peptide (MHC class I), and on the 6th day after the stimulation, cytotoxic activity of the spleen cells was measured using RMAS cells pulsed with a WT11 2 6 peptide (MHC class I) as a target cell. As a control, the cytotoxic activity of the spleen cells was measured using RMAS cells as a target cell. […] The WT1-specific cytotoxic T cells were not induced in one mouse. Also, it was clear that the induction of the WT1-specific cytotoxic T cells was lower as compared with the WT13 5 helper peptide (MHC class II)-immunized group (FIGS. 9 and 10).
Next, specific cytolysis was analyzed in mice of the above WT135 helper peptide (MHC class II)-immunized group and control group. […] Also, the above-prepared spleen cells and a fluorescence-labeled WT1 tetramer (H-2 Db WT1 Tetramer-[…]-PE) were incubated at 4° C. for 20 minutes, washed, then stained with fluorescence-labeled CD3 and CD8 antibodies, again washed, and analyzed by FACS. […]

Row | Sequence | proliferation reaction with MHC class I antibody or MHC class II antibody added (3H incorporation) [1] | proliferation reaction in response to stimulator pulsed with the peptide (3H incorporation) [1] | proliferation reaction in response to C1498 cells pulsed with peptide or expressing a WT1 protein (3H incorporation) [2] | WT1-specific cytotoxic T cells (specific cytolysis; CD3-, CD8- and WT1 tetramer-positive cells) versus control group ([3]; spleen cells of tumor-implanted mice, p<0.05, FIG. 11) | induction of WT1-specific cytotoxic T cells (cytotoxic activity of spleen cells) ([3]; spleen excised on 29th day, stimulated once with WT1126 peptide, measured on 6th day, FIG. 9)
1 | EQCLSAFTLHFSGQFTG (listed as Mus musculus) [WT186] | suppressed by the addition of an MHC class II antibody | proliferated | produced by an intracellular process of an endogenous WT1 protein and displayed on an MHC class II molecule |  | 
2 | FRGIQDVRRVSGVAPTLVR (listed as Mus musculus) [WT1294] | suppressed by the addition of an MHC class II antibody | proliferated | produced by an intracellular process of an endogenous WT1 protein and displayed on an MHC class II molecule |  | 
3 | WAPVLDFAPPGASAYGSL [WT135] |  |  |  | significantly high | induced in all 4 mice

— patent publication US11732018B2, “Cancer antigen helper peptide” (priority 2009, dated 2023)
